In patent US9745255B2, “Meta-substituted biphenyl peripherally restricted FAAH inhibitors” (The Regents of the University of California, priority 2011, dated 2017):
Like-named read-outs stand apart in the source and are kept apart here.

How the values were obtained:
[1] = Brain entry after systemic administration in mice; assay type: in vivo, mouse; conditions: inferred from Table 3
Text: The activity of compounds of Formula I as peripherally restricted FAAH inhibitors was found based in part on the polarity of the p-hydroxyphenyl moiety.

FAAH [2] = target: T1, FAAH (Rattus norvegicus, UniProt P97612); assay: In vitro FAAH assay (IC50, Tables 1 and 2); assay type: biochemical
T1 construct: Wistar rats were typically used for the FAAH studies; from tissue; host or cells: Wistar rat
T1 sequence (P97612 1-579): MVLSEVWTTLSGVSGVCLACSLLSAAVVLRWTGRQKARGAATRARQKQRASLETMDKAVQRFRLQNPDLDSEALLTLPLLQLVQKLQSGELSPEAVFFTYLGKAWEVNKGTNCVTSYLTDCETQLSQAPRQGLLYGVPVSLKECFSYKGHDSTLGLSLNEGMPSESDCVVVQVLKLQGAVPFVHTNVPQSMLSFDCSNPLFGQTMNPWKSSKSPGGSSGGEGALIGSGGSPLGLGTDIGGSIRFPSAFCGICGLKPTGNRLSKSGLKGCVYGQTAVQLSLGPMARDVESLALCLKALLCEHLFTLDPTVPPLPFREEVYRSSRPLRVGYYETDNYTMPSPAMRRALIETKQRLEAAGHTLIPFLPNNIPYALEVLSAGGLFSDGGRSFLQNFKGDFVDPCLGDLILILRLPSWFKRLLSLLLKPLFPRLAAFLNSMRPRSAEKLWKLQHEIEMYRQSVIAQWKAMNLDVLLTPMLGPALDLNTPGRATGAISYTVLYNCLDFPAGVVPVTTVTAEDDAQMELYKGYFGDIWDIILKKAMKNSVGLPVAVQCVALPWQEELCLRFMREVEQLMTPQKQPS
Description: Male Swiss Webster and CD1 mice (Charles River, 20-30 g) were used. Mice were group-housed in standard cages at room temperature on a 12:12 h light:dark cycle with unlimited access to water and standard chow pellets. Wistar rats were typically used for the FAAH studies. All experiments met the National Institutes of Health guidelines for the care and use of laboratory animals, were approved by the Institutional Animal Care and Use Committee of the University of California, Irvine, and the University of Georgia, Athens, and were in compliance with the European Community Council Directive 86 (609) EEC and the experimental protocol was carried out in compliance with Italian regulations (DL 116/92).
(§1) Comparison of compounds according to the invention with other peripherally restricted FAAH inhibitors for their ability to inhibit FAAH in the periphery. […] In particular, (1) IC50 values were generated in vitro using a FAAH assay. […] Mice received a 1 mg/kg dose of each compound by the intraperitoneal route, and were killed 2 h after administration. Tissues were collected and FAAH activity was measured ex vivo in tissue extracts (membrane fraction) using the FAAH assay.

FAAH [3] = target: T2, FAAH (Mus musculus, UniProt O08914); assay: Ex vivo FAAH activity in liver and brain tissue extracts after i.p. administration to mice; set-up: from tissue; host or cells: mouse liver and brain, membrane fraction of tissue extracts; conditions: for inhibition at 1 mg/kg: mouse, ip, Table 1, mice, 1 mg/kg intraperitoneal, killed 2 h after administration, ex vivo
T2 sequence (O08914 1-579): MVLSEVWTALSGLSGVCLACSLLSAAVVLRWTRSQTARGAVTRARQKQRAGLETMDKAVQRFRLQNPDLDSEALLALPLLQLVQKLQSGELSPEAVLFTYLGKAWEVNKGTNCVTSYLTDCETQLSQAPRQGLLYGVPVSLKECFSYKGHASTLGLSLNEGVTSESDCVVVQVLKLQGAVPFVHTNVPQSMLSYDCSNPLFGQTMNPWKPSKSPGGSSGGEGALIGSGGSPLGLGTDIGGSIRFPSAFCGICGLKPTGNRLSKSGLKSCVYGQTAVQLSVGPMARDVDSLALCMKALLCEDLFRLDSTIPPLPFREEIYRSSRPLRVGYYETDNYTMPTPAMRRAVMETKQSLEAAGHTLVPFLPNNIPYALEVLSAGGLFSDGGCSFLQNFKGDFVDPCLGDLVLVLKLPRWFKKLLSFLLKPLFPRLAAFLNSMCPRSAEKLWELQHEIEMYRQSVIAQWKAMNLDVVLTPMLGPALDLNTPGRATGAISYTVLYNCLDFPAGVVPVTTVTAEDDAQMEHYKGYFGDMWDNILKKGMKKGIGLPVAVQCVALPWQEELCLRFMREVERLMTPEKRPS
Description: as §1

[4] = tested on: rodent models of inflammation and peripheral nerve injury; assay: Rodent models of inflammation and peripheral nerve injury (persistent pain); assay type: in vivo; conditions: prevented by CB1 receptor blockade
Text: (§2) Peripheral cannabinoid receptors exert a powerful inhibitory control over pain initiation, but the endogenous cannabinoid signal that normally engages this intrinsic analgesic mechanism is unknown. […] CB1 receptor blockade prevents these effects. […] Accordingly, relatively brain-impermeant FAAH inhibitors, which strengthen this gating mechanism, offer a new approach to pain therapy (see, U.S. Provisional Patent Application Ser. No. 61/368,500, filed on Jul. 28, 2010, which is incorporated herein by reference in its entirety for all purposes, and specifically with respect to methods of assaying FAAH inhibitors for their biological and pharmaceutical properties, and the pharmacological properties of peripherally restricted FAAH inhibitors in general).

FAAH [5] = target: T2, FAAH; assay: FAAH activity and anandamide levels outside the CNS; set-up: suppressed FAAH activity and increased anandamide levels outside the central nervous system (CNS); from tissue; host or cells: peripheral tissues of the dosed animal, not specified; conditions: in vivo
Text: Peripheral cannabinoid receptors exert a powerful inhibitory control over pain initiation, but the endogenous cannabinoid signal that normally engages this intrinsic analgesic mechanism is unknown.

[6] = Transport system mediated extrusion from brain; conditions: in vivo
Text: as §2

[7] = tested on: carrageenan-induced edema in male CD1 mice; assay: Carrageenan-induced paw edema; assay type: in vivo, mouse; conditions: oral administration, 10 and 30 mg/kg, vs. vehicle (FIG. 1)
Description: (§3) Peripheral inflammation was induced by intraplantar (i.pl.) injection of the polysaccharide λ-carrageenan (i.pl. 1% weight vol^−1 in sterile water, 20 μL) into the left hind paw of male CD1 mice.
Paw edema was induced in mice by injection into the right hind paws of 50 μL, of sterile saline containing 1% λ-carrageenan. Paw volumes were measured using a plethysmometer (Ugo Basile, Milan, Italy). […] The increase in paw volume (mL) was evaluated as the difference between the paw volume measured at each time point and the basal paw volume measured immediately before carrageenan injection.

[8] = tested on: carrageenan-induced hyperalgesia in male CD1 mice; assay: Carrageenan-induced mechanical hyperalgesia; assay type: in vivo, mouse; conditions: oral administration, p<0.001 vs. vehicle (FIG. 2)
Description: as §3
(§4) Nocifensive responses were measured elicited by intraplantar injection of carrageenan in male CD1 mice (LoVerme, J., La Rana, G., Russo, R., Calignano, A., & Piomelli, D., The search for the palmitoylethanolamide receptor. Life Sci 77 (14), 1685-1698 (2005)).
(§5) Mechanical hyperalgesia was determined by measuring the latency in seconds to withdraw the paw away from a constant mechanical pressure exerted onto the dorsal surface. […] Withdrawal threshold was measured on the inflamed ipsilateral paw at different time points after oral drug administration. […] Thermal hyperalgesia was assessed as described (Hargreaves, K., Dubner, R., Brown, F., Flores, C., & Joris, J., A new and sensitive method for measuring thermal nociception in cutaneous hyperalgesia. Pain 32 (1), 77-88 (1988)), measuring the latency to withdraw the hindpaw from a focused beam of radiant heat (thermal intensity: infrared 3.0) applied to the plantar surface using a plantar test apparatus (Ugo Basile, Italy). […] Withdrawal latency was measured on the inflamed ipsilateral paw at different time points after oral drug administration. […]

[9] = tested on: carrageenan-induced hyperalgesia in male CD1 mice; assay: Carrageenan-induced thermal hyperalgesia; assay type: in vivo, mouse; conditions: oral administration, p<0.001 vs. vehicle (FIG. 3)
Description: as §3, §4, §5

[10] = brain membrane fraction, read-out: FAAH inhibition in brain
[11] = liver membrane fraction, read-out: FAAH inhibition in liver

COc1ccc(OC(=O)NC2CCCCC2)cc1-c1cccc(C(N)=O)c1 [Compound 1c]
entry into the brain after systemic administration [1]: enter the brain

NC(=O)c1cccc(-c2cc(OC(=O)NC3CCCCC3)ccc2N)c1 [Compound 1f]
entry into the brain after systemic administration [1]: largely excluded

NC(=O)c1cccc(-c2cc(OC(=O)NC3CCCCC3)ccc2F)c1 [Compound 1e]
entry into the brain after systemic administration [1]: enter the brain

NC(=O)c1cccc(-c2cc(OC(=O)NC3CCCCC3)ccc2C(=O)O)c1 [ARN0715]
IC50 (FAAH [2]; Table 2 (Example 5)): 2100 nM
FAAH inhibition in brain (FAAH [3]; Table 2 (Example 5), brain): −2.1 ± 0.5%
FAAH inhibition in liver (FAAH [3]; Table 2 (Example 5), liver): 86.3 ± 1.3%

NC(=O)c1cccc(-c2cc(OC(=O)NC3CCCCC3)ccc2O)c1 [URB937]
noxious stimulus-evoked neuronal activation in spinal cord regions implicated in nociceptive processing [4]: suppresses
behavioral responses indicative of persistent pain ([4]; rodent models of inflammation and peripheral nerve injury): attenuated
FAAH activity outside the central nervous system (CNS) (FAAH [5]): suppressed
anandamide levels outside the central nervous system (CNS) (FAAH [5]): increased
susceptibility to transport system mediated extrusion from brain [6]: surprisingly susceptible

NC(=O)c1cccc(-c2cc(O)cc(OC(=O)NC3CCCCC3)c2)c1 [Compound 1, [3-(3-carbamoylphenyl)-5-hydroxy-phenyl]N-cyclohexylcarbamate]
difference between paw volume at each time point and basal paw volume (carrageenan-induced edema) [7]: reduced
withdrawal threshold on inflamed ipsilateral paw, mechanical hyperalgesia test [8]: increased
inhibition at 1 mg/kg (FAAH [3]; [10]): -4.2 ± 2.5%
inhibition at 1 mg/kg (FAAH [3]; [11]): 89.5 ± 1.1%
withdrawal threshold on inflamed ipsilateral paw, thermal hyperalgesia test [9]: increased

CNC(=O)c1cccc(-c2cc(O)cc(OC(=O)NC3CCCCC3)c2)c1 [Compound 2, [3-hydroxy-5-[3-(methylcarbamoyl)phenyl]phenyl]N-cyclohexylcarbamate]
IC50 (FAAH [2]; Table 1, in vitro FAAH assay): 0.3 nM
inhibition at 1 mg/kg (FAAH [3]; [10]): -1.7 ± 0.2%
inhibition at 1 mg/kg (FAAH [3]; [11]): 69.1 ± 3.5%

Cc1ccc(OC(=O)NC2CCCCC2)cc1-c1cccc(C(N)=O)c1 [Compound 1d]
entry into the brain after systemic administration [1]: enter the brain
